Reference: ChEMBL document CHEMBL1130620, “New taxanes as highly efficient reversal agents for multidrug resistance in cancer cells” (Bioorg Med Chem Lett, 1998)

Legend:
[1] = tested on: MDA-MB-435; assay: Cytotoxicity was evaluated at 0.1 uM concentration in MDA 435/LCC6-MDR cell line when co-administered with Paclitaxel; type: functional, cell-based; conditions: Homo sapiens
[2] = tested on: MDA-MB-435; assay: Compound was evaluated for multi-drug resistance (MDR) reversal at 0.1 uM concentration in MDA 435/LCC6-MDR cell line when co-administered with Paclitaxel; type: functional, Homo sapiens
[3] = tested on: MCF7R; assay: Cytotoxicity was evaluated at 1 uM concentration in MCF7-R cell line when co-administered with Paclitaxel; type: functional, cell-based; conditions: Homo sapiens
[4] = tested on: MCF7R; assay: Cytotoxicity was evaluated at 3 uM concentration in MCF7-R cell line when co-administered with Paclitaxel; type: functional, cell-based; conditions: Homo sapiens
[5] = tested on: MCF7R; assay: Compound was evaluated for multi-drug resistance (MDR) reversal at 3 uM concentration in MCF7-R cell line when co-administered with Paclitaxel; type: functional, Homo sapiens
[6] = tested on: MCF7R; assay: Compound was evaluated for multi-drug resistance (MDR) reversal at 1 uM concentration in MCF7-R cell line when co-administered with Paclitaxel; type: functional, Homo sapiens
[7] = tested on: MDA-MB-435; assay: Cytotoxicity was evaluated at 1 uM concentration in MDA 435/LCC6-MDR cell line when co-administered with Paclitaxel; type: functional, cell-based; conditions: Homo sapiens
[8] = tested on: MDA-MB-435; assay: Compound was evaluated for multi-drug resistance (MDR) reversal at 1 uM concentration in MDA 435/LCC6-MDR cell line when co-administered with Paclitaxel; type: functional, Homo sapiens
[9] = tested on: MCF7R; assay: Cytotoxicity was evaluated in MCF7-R cell line; type: functional, cell-based; conditions: Homo sapiens
[10] = tested on: MCF7R; assay: Compound was evaluated for multi-drug resistance (MDR) reversal in MCF7-R cell line; type: functional, Homo sapiens
[11] = tested on: MDA-MB-435; assay: Cytotoxicity was evaluated in MDA 435/LCC6-MDR cell line; type: functional, cell-based; conditions: Homo sapiens
[12] = tested on: MDA-MB-435; assay: Compound was evaluated for multi-drug resistance (MDR) reversal in MDA 435/LCC6-MDR cell line; type: functional, Homo sapiens
[13] = tested on: MDA-MB-435; assay: Cytotoxicity was evaluated at 3 uM concentration in MDA 435/LCC6-MDR cell line when co-administered with Paclitaxel; type: functional, cell-based; conditions: Homo sapiens
[14] = tested on: MDA-MB-435; assay: Compound was evaluated for multi-drug resistance (MDR) reversal at 3 uM concentration in MDA 435/LCC6-MDR cell line when co-administered with Paclitaxel; type: functional, Homo sapiens

Structure (SMILES): CC(=O)O[C@@]12CO[C@@H]1C[C@H](OC(=O)CCc1ccc(C(=O)c3ccccc3)cc1)[C@@]1(C)C(=O)[C@H](OC(=O)CCc3ccc(C(=O)c4ccccc4)cc3)C3=C(C)[C@@H](OC(=O)CCc4ccc(C(=O)c5ccccc5)cc4)C[C@@](O)([C@@H](OC(=O)c4ccccc4)[C@H]21)C3(C)C
- IC50 [1]: 0.86 µM
- Reduction [2]: 0%

Structure (SMILES): CC(=O)O[C@H]1C(=O)[C@]2(C)[C@@H](OC(=O)c3ccc4ccccc4c3)C[C@H]3OC[C@@]3(OC(C)=O)[C@H]2[C@H](OC(=O)c2ccccc2)[C@]2(O)C[C@H](O)C(C)=C1C2(C)C
- IC50 [3]: 0.021 µM

Structure (SMILES): CC(=O)O[C@H]1C(=O)[C@]2(C)[C@@H](OC(=O)/C=C/c3ccc(C(=O)c4ccccc4)cc3)C[C@H]3OC[C@@]3(OC(C)=O)[C@H]2[C@H](OC(=O)c2ccccc2)[C@]2(O)C[C@H](O)C(C)=C1C2(C)C
- IC50 [4]: 0.0016 µM

Structure (SMILES): CC(=O)O[C@@]12CO[C@@H]1C[C@H](OC(=O)OCC(Cl)(Cl)Cl)[C@@]1(C)C(=O)[C@H](OC(=O)OCC(Cl)(Cl)Cl)C3=C(C)[C@@H](OC(=O)CCc4ccc5ccccc5c4)C[C@@](O)([C@@H](OC(=O)c4ccccc4)[C@H]21)C3(C)C
- IC50 [4]: 0.86 µM
- Reduction [5]: 0%

Structure (SMILES): CC(=O)O[C@@]12CO[C@@H]1C[C@H](O)[C@@]1(C)C(=O)[C@H](O)C3=C(C)[C@@H](OC(=O)CCc4ccc5ccccc5c4)C[C@@](O)([C@@H](OC(=O)c4ccccc4)[C@H]21)C3(C)C
- IC50 [3]: 0.54 µM
- Reduction [6]: 37%

Structure (SMILES): CC(=O)O[C@@]12CO[C@@H]1C[C@H](OC(=O)/C=C/c1ccc3ccccc3c1)[C@@]1(C)C(=O)[C@H](OC(=O)CCc3ccc(C(=O)c4ccccc4)cc3)C3=C(C)[C@@H](O)C[C@@](O)([C@@H](OC(=O)c4ccccc4)[C@H]21)C3(C)C
- IC50 [3]: 0.86 µM
- Reduction [6]: 0%

Structure (SMILES): CC(=O)O[C@H]1C(=O)[C@]2(C)[C@@H](OC(=O)/C=C/c3ccc4ccccc4c3)C[C@H]3OC[C@@]3(OC(C)=O)[C@H]2[C@H](OC(=O)c2ccccc2)[C@]2(O)C[C@H](O)C(C)=C1C2(C)C
- IC50 [3]: 0.036 µM
- Reduction [6]: 96%
- IC50 [7]: 0.43 µM
- Reduction [8]: 50%

Structure (SMILES): CC(=O)O[C@H]1C(=O)[C@]2(C)[C@@H](OC(C)=O)C[C@H]3OC[C@@]3(OC(C)=O)[C@H]2[C@H](OC(=O)/C=C/c2ccc(C(=O)c3ccccc3)cc2)[C@]2(O)C[C@H](OC(C)=O)C(C)=C1C2(C)C
- IC50 [1]: 0.63 µM
- Reduction [2]: 27%

Structure (SMILES): CC(=O)O[C@H]1C(=O)[C@]2(C)[C@@H](OC(C)=O)C[C@H]3OC[C@@]3(OC(C)=O)[C@H]2[C@H](OC(=O)CCc2ccc3ccccc3c2)[C@]2(O)C[C@H](OC(C)=O)C(C)=C1C2(C)C
- IC50 [1]: 0.65 µM
- Reduction [2]: 24%

Structure (SMILES): CC(=O)O[C@@]12CO[C@@H]1C[C@H](O)[C@@]1(C)C(=O)[C@H](O)C3=C(C)[C@@H](OC(=O)/C=C/c4ccc5ccccc5c4)C[C@@](O)([C@@H](OC(=O)c4ccccc4)[C@H]21)C3(C)C
- IC50 [3]: 0.1 µM
- Reduction [6]: 88%

Structure (SMILES): CC(=O)O[C@@]12CO[C@@H]1C[C@H](OC(=O)OCC(Cl)(Cl)Cl)[C@@]1(C)C(=O)[C@H](OC(=O)OCC(Cl)(Cl)Cl)C3=C(C)[C@@H](OC(=O)/C=C/c4ccc(C(=O)c5ccccc5)cc4)C[C@@](O)([C@@H](OC(=O)c4ccccc4)[C@H]21)C3(C)C
- IC50 [4]: 0.17 µM
- Reduction [5]: 80%

Structure (SMILES): CC(=O)O[C@H]1C(=O)[C@@]2(C)[C@H]([C@H](OC(=O)c3ccccc3)[C@]3(O)C[C@H](OC(=O)[C@H](O)[C@@H](NC(=O)c4ccccc4)c4ccccc4)C(C)=C1C3(C)C)[C@]1(OC(C)=O)CO[C@@H]1C[C@@H]2O [PACLITAXEL]
- IC50 [9]: 0.86 µM
- Reduction [10]: 0%
- IC50 [11]: 0.86 µM
- Reduction [12]: 0%

Structure (SMILES): CC(=O)O[C@@]12CO[C@@H]1C[C@H](O)[C@@]1(C)C(=O)[C@H](OC(=O)/C=C/c3ccc(C(=O)c4ccccc4)cc3)C3=C(C)[C@@H](O)C[C@@](O)([C@@H](OC(=O)c4ccccc4)[C@H]21)C3(C)C
- IC50 [3]: 0.042 µM
- Reduction [6]: 95%

Structure (SMILES): CC(=O)O[C@H]1C(=O)[C@]2(C)[C@@H](OC(=O)/C=C/c3ccc4ccccc4c3)C[C@H]3OC[C@@]3(OC(C)=O)[C@H]2[C@H](OC(=O)c2ccccc2)[C@]2(O)C[C@H](OC(C)=O)C(C)=C1C2(C)C
- IC50 [4]: 0.0058 µM
- Reduction [5]: 99.3%
- IC50 [1]: 0.34 µM
- Reduction [2]: 60%

Structure (SMILES): CC(=O)O[C@H]1C(=O)[C@]2(C)[C@@H](OC(=O)CNC(=O)c3ccc4ccccc4c3)C[C@H]3OC[C@@]3(OC(C)=O)[C@H]2[C@H](OC(=O)c2ccccc2)[C@]2(O)C[C@H](O)C(C)=C1C2(C)C
- IC50 [3]: 0.5 µM
- Reduction [6]: 42%

Structure (SMILES): CC(=O)O[C@@]12CO[C@@H]1C[C@H](O)[C@@]1(C)C(=O)[C@H](O)C3=C(C)[C@@H](OC(=O)/C=C/c4ccc(C(=O)c5ccccc5)cc4)C[C@@](O)([C@@H](OC(=O)c4ccccc4)[C@H]21)C3(C)C
- IC50 [3]: 0.86 µM
- Reduction [6]: 0%

Structure (SMILES): CC(=O)O[C@H]1C(=O)[C@]2(C)[C@@H](OC(=O)/C=C/c3ccc(C(=O)c4ccccc4)cc3)C[C@H]3OC[C@@]3(OC(C)=O)[C@H]2[C@H](OC(=O)c2ccccc2)[C@]2(O)C[C@H](OC(C)=O)C(C)=C1C2(C)C
- IC50 [4]: 0.0026 µM
- IC50 [1]: 0.052 µM
- IC50 [13]: 0.069 µM
- Reduction [2]: 94%
- Reduction [14]: 92%

Structure (SMILES): CC(=O)O[C@H]1C(=O)[C@]2(C)[C@@H](OC(=O)CCc3ccc4ccccc4c3)C[C@H]3OC[C@@]3(OC(C)=O)[C@H]2[C@H](OC(=O)c2ccccc2)[C@]2(O)C[C@H](O)C(C)=C1C2(C)C
- IC50 [3]: 0.033 µM
- Reduction [6]: 96%

Structure (SMILES): CC(=O)O[C@@]12CO[C@@H]1C[C@H](OC(=O)CCc1ccc(C(=O)c3ccccc3)cc1)[C@@]1(C)C(=O)[C@H](OC(=O)CCc3ccc(C(=O)c4ccccc4)cc3)C3=C(C)[C@@H](O)C[C@@](O)([C@@H](OC(=O)c4ccccc4)[C@H]21)C3(C)C
- IC50 [3]: 0.0026 µM
- Reduction [6]: 99.7%

Structure (SMILES): CC(=O)O[C@@]12CO[C@@H]1C[C@H](OC(=O)/C=C/c1ccc3ccccc3c1)[C@@]1(C)C(=O)[C@H](OC(=O)/C=C/c3ccc4ccccc4c3)C3=C(C)[C@@H](O)C[C@@](O)([C@@H](OC(=O)c4ccccc4)[C@H]21)C3(C)C
- IC50 [3]: 0.47 µM
- Reduction [6]: 45%

Structure (SMILES): CC(=O)O[C@@]12CO[C@@H]1C[C@H](OC(=O)OCC(Cl)(Cl)Cl)[C@@]1(C)C(=O)[C@H](OC(=O)OCC(Cl)(Cl)Cl)C3=C(C)[C@@H](OC(=O)/C=C/c4ccc5ccccc5c4)C[C@@](O)([C@@H](OC(=O)c4ccccc4)[C@H]21)C3(C)C
- IC50 [4]: 0.75 µM
- Reduction [5]: 12%

Structure (SMILES): CC(=O)O[C@H]1C(=O)[C@]2(C)[C@@H](OC(=O)CCC3CCC4CCCCC4C3)C[C@H]3OC[C@@]3(OC(C)=O)[C@H]2[C@H](OC(=O)C2CCCCC2)[C@]2(O)C[C@H](O)C(C)=C1C2(C)C (stereo partly specified)
- IC50 [3]: 0.16 µM
- Reduction [6]: 81%
